In assay [1] the test system is MDA-MB-231 cells. Put plainly: Cell growth assay (AlamarBlue), MDA-MB-231. Type of assay: cell-based, human. The settings on record: Homo sapiens, 72 h of treatment. On the technique in general: Resazurin is reduced to fluorescent resorufin, in cell work by metabolically active cells.
For assay [2], the target named is T1, SIRT1 (Homo sapiens, UniProt Q96EB6).
T1 sequence (Q96EB6 1-747): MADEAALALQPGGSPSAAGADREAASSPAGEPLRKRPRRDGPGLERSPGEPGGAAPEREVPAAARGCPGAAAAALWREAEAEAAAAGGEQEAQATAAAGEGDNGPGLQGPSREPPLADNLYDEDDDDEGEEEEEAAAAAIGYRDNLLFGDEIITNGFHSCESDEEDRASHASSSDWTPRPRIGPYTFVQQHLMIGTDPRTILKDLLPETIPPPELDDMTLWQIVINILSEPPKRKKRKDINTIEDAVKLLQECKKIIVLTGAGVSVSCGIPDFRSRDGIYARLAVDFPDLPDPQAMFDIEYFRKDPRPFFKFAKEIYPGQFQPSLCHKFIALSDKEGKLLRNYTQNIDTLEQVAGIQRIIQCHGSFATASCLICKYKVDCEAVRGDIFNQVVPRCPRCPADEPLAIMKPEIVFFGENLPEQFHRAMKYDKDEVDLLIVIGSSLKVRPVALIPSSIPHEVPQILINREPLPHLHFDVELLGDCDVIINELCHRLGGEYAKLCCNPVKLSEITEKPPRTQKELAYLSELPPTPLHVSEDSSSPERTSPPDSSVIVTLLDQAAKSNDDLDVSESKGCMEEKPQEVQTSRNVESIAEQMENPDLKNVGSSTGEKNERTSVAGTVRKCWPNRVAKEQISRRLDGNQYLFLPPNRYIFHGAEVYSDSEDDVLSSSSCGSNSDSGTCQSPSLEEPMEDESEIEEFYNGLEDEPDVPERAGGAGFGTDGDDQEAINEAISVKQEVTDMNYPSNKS
Put plainly: Fluor de Lys SIRT1 assay. The conditions noted are these: for inhibition at 10 µM: read-out: % inhibition at 10 μM SIRT1; for inhibition at 50 µM: read-out: % inhibition at 50 μM SIRT1.

Assay [3] addresses T2, SIRT2 (Homo sapiens, UniProt Q8IXJ6).
T2 sequence (Q8IXJ6 1-389): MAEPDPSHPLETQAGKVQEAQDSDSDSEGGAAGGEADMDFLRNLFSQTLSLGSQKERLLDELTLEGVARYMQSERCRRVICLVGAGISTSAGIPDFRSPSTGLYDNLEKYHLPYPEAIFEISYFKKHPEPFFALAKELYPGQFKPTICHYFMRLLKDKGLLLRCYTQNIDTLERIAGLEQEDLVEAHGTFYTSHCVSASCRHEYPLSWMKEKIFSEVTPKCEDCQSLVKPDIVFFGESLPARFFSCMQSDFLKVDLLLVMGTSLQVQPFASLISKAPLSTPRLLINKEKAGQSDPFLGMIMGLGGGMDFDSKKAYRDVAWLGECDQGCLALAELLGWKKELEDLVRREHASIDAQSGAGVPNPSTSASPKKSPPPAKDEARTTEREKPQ
Put plainly: Fluor de Lys SIRT2 assay. The conditions noted are these: for inhibition at 1 µM: read-out: % inhibition at 1 μM SIRT2; for inhibition at 10 µM: read-out: % inhibition at 10 μM SIRT2.

Assay [4] addresses T3, SIRT3 (Homo sapiens, UniProt Q9NTG7).
T3 sequence (Q9NTG7 1-399): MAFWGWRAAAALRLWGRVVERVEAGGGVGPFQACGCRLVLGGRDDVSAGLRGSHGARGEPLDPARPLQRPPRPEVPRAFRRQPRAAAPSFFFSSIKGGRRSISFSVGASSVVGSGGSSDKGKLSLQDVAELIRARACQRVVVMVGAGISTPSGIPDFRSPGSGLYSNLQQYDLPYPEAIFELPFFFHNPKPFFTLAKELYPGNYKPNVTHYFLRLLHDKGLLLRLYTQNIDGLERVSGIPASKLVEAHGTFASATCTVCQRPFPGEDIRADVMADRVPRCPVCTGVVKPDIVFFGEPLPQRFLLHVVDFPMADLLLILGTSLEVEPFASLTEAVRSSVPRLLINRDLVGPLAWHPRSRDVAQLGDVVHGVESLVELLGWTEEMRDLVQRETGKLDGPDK
Put plainly: Fluor de Lys SIRT3 assay. The conditions noted are these: for inhibition at 10 µM: read-out: % inhibition at 10 μM SIRT3; for inhibition at 50 µM: read-out: % inhibition at 50 μM SIRT3.

For assay [5], the target named is T4, SIRT5 (Homo sapiens, UniProt Q9NXA8).
T4 sequence (Q9NXA8 37-310): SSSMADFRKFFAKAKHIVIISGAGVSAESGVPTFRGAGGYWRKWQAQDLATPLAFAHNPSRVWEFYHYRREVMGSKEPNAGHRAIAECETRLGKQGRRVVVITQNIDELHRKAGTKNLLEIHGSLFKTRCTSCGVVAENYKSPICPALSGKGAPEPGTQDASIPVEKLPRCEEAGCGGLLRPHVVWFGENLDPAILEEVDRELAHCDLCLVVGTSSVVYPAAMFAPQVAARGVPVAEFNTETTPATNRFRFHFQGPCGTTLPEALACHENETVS
Put plainly: Fluor de Lys SIRT5 assay. The conditions noted are these: for inhibition at 10 µM: read-out: % inhibition at 10 μM SIRT5; for inhibition at 50 µM: read-out: % inhibition at 50 μM SIRT5.

Assay [6] has as its target T1, SIRT1. More on the design: purchased Biomol / Enzo Life Sciences (Fluor de Lys kit AK-555) BML-SE239-0100. The settings on record: cited from earlier work.
Assay [7] concerns the target T3, SIRT3. More on the design: purchased Biomol / Enzo Life Sciences (Fluor de Lys kit AK-557) BML-SE270-0500. The settings on record: cited from earlier work.

Each structure is given as a SMILES string.

For the molecule `Cc1cc(C)nc(SCC(=O)Nc2ncc(Cc3cccc4ccccc34)s2)n1` [Compound 5, SirReal2, reference compound], in assay [1], the GI50 (usually the concentration that inhibits growth by half) stood at 9.46 µM. Besides, the inhibition (in general, the percentage by which the read-out fell short of the control) at 10 µM came out at 3 ± 0.65% in assay [2], 98 ± 3.1% in assay [3], 5 ± 0.6% in assay [4] and 3 ± 1.5% in assay [5]. In addition, the inhibition at 50 µM is 6% in assay [2], 1% in assay [4] and 1% in assay [5]. In addition, the inhibition at 1 µM in assay [3] was 80 ± 1.5%. The IC50 in assay [6] and in assay [7] was more than 100 µM each time.

`NC(=O)c1ccccc1Nc1cccc(OCCc2ccccc2)c1` [Compound 6, 3′-phenethyloxy-2-anilinobenzamide, reference compound] registered a GI50 in assay [1] (MDA-MB-231, 72 h) of more than 30 µM. Moreover, the inhibition at 10 µM was found to be 3 ± 3.6% in assay [2], 90 ± 1.5% in assay [3], 1 ± 2.6% in assay [4] and 10 ± 2.6% in assay [5]. For the same molecule, the inhibition at 50 µM in assay [2] worked out at 14%; in assay [4] it was 12%; in assay [5], 12%. Moreover, the results for the IC50 in assay [3], in assay [6] and in assay [7] were 1740 ± 260 nM, more than 300 µM and more than 300 µM, respectively. Moreover, the inhibition at 1 µM in assay [3] was 32 ± 4.1%.

(Values after publication PMC5628579, “Potent mechanism-based sirtuin-2-selective inhibition by an in situ-generated occupant of the substrate-binding site, “selectivity pocket” and NAD^+-binding site” (Chemical Science, 2017).)
